Laboratory results: ChEMBL document CHEMBL4411335, “Identification and Optimization of Novel Small c-Abl Kinase Activators Using Fragment and HTS Methodologies” (J Med Chem, 2019)
Values after ≈ are worked out from the molar mass of the structure shown.

Experiments:
[1] = Kinetic solubility of the compound at pH 7.4 after 1 hr by CLND-based assay; assay type: physicochemical; details: buffer, read-out: Kinetic_solubility
[2] = Terminal plasma concentration in CD1 mouse at 100 mg/kg, ip after 40 mins; assay type: ADME, organism-based; details: read-out: Cp(T)
Mus musculus [3] = test: In vivo activation of c-ABL in CD1 mouse assessed as fold increase in phosphorylated CRKL level at 100 mg/kg, ip after 180 mins relative to total CRK-L protein level; assay type: functional
[4] = Permeability of the compound at […] after 3 hrs by artificial membrane permeability assay; assay type: ADME; details: PAMPA; read-out: permeability
[5] = Toxicity in CD1 mouse assessed as induction of hemolysis at 100 mg/kg, BID for 10 days; assay type: organism-based; details: in vivo, 240 h
[6] = Terminal plasma concentration in CD1 mouse at 100 mg/kg, ip after 180 mins; assay type: ADME, organism-based; details: read-out: Cp(T)
[7] = biological target: Tyrosine-protein kinase ABL1 (Homo sapiens, UniProt P00519, D382N); test: Displacement of Myr-GQQPGKVLGDQRRPSL(K-TAMRA)G-amide from N-terminal-truncated human c-ABL D382N mutant (46 to 534 residues) after 30 mins by fluorescence polarization binding assay
Tyrosine-protein kinase ABL1 (Homo sapiens, UniProt P00519, D382N), sequence (P00519 as listed by the source D382N): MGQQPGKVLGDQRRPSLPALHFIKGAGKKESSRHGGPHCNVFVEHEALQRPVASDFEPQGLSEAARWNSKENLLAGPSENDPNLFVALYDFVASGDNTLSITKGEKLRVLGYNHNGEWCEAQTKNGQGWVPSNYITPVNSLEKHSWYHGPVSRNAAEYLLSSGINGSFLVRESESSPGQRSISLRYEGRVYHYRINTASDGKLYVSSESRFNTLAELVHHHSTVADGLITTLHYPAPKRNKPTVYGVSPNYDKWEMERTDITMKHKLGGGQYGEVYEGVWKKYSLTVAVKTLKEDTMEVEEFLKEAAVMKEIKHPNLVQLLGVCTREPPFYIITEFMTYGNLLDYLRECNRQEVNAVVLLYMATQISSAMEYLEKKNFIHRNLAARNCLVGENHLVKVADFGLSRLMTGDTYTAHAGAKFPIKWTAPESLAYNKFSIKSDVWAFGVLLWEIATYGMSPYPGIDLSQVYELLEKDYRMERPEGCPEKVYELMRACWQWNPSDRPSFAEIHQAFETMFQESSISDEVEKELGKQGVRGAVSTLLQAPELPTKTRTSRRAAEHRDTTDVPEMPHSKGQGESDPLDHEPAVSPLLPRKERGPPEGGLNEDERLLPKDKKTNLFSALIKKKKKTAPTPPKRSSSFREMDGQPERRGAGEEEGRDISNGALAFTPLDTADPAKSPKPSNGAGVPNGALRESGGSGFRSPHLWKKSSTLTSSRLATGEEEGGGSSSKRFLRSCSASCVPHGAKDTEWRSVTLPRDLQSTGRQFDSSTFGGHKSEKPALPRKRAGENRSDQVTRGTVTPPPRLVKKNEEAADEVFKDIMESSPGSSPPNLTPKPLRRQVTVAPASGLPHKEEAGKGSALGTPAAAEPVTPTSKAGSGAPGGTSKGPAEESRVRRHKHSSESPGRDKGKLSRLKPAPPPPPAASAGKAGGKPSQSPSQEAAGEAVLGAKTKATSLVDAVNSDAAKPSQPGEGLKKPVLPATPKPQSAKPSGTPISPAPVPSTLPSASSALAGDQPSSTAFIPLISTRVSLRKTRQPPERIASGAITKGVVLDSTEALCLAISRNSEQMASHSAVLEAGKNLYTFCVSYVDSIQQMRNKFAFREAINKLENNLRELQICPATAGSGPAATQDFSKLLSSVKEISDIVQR

[8] = biological target: T1, Tyrosine-protein kinase ABL1 (Homo sapiens, UniProt P00519); test: Activation of full length human 6His-tagged c-Abl expressed in baculovirus expression system using abltide as substrate after 2 hrs by IMAP assay; details: read-out: pIC50 (converted)
T1 sequence (P00519 whole entry): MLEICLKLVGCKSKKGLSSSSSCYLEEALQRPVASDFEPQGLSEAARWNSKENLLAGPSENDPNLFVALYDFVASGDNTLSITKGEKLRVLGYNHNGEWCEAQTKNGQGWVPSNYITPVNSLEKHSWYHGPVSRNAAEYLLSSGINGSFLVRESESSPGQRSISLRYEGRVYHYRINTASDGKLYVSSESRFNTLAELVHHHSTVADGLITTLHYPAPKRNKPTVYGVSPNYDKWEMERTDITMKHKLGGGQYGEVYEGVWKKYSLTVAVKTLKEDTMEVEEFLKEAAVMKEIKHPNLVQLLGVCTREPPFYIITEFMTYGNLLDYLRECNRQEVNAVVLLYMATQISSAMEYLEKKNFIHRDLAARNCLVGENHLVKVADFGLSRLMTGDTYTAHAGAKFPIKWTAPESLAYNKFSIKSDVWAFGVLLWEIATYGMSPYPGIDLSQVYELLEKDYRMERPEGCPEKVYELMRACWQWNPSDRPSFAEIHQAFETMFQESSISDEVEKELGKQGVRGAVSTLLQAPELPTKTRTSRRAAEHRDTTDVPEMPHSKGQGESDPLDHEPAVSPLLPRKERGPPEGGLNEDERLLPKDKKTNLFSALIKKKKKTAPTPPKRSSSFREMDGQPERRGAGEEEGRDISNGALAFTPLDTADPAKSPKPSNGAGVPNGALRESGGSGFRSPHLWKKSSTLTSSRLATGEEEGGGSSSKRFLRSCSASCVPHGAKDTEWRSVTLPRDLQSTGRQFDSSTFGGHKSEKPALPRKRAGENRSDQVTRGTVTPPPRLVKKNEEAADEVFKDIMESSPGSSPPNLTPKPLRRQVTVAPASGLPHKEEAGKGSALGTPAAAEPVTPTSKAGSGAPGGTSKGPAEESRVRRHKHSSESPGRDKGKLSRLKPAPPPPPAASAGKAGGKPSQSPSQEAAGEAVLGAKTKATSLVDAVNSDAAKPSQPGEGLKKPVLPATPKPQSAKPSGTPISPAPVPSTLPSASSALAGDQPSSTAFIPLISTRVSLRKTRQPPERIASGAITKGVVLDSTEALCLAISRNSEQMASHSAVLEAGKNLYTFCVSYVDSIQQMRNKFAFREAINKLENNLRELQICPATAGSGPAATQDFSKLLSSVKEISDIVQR

[9] = Intrinsic clearance in CD1 mouse liver microsomes at 0.5 uM measured up 60 mins in presence of NADPH by LC-MS/MS analysis; assay type: ADME, Microsome; details: 1 h
Mus musculus [10] = test: In vivo activation of c-ABL in CD1 mouse assessed as fold increase in phosphorylated CRKL level at 100 mg/kg, ip after 40 mins relative to total CRK-L protein level; assay type: functional
[11] = biological target: T1, Tyrosine-protein kinase ABL1; test: Induction of human c-ABL phosphorylation at Y245/Y412 residues in bacmam-induced HEK-MSR2 cell lysates by in-cell Western blot analysis; assay type: subcellular, Lysate

Structure (SMILES)	solubility kinetic at 1 h [1] [µM]	concentration at 40 min [2] [ng/mL]	fold change (FC) (Mus musculus [3])	Papp at 3 h [4] [×10⁻⁶ cm/s]	Activity [5]	concentration at 3 h [6] [ng/mL]	IC50 [7] [nM]	EC50 for c-Abl activation [8] [nM]	CLint [9] [µL/min/mg]	fold change (FC) (Mus musculus [10])	EC50 [11] [nM]
N#CCCC(=O)NC1=NN(c2ccc(Cl)c(Cl)c2)CC1	39 (≈ 12.1 µg/mL)	15600	35	35.5	Toxic	17600	316	251	< 10	19	794
O=C(NC1=NN(c2ccc(Cl)c(Cl)c2)CC1CCO)c1ccncc1 (racemic)	167 (≈ 63.3 µg/mL)	–	–	33.5	–	–	158	100	–	–	3160
